Measured values reported in EP0394983A2, “Anthracycline derivatives with cytostatic activity” (priority 1989, dated 1990).
≈ marks a conversion by molar mass, not a printed value. Where two headings read alike, the source gives them in different places.

How the values were obtained:
L1210 Leukämiezellen = experiment: Colony formation of L1210 leukaemia cells in soft agar (cytotoxicity in vitro); type: cell-based, Maus; details: Mus musculus
From the text: Die zytostatische Wirksamkeit der erfindungsgemäßen Verbindungen wurde anhand von L1210 Leukämiezellen der Maus getestet. Hierzu wurde die Koloniebildung von L1210 Leukämiezellen in Agarplatten herangezogen. Diese Methode dient zum Nachweis des Einflusses der Testsubstanzen auf das Wachstumsverhalten der Zellen über 1 Stunde oder über mehrere Generationen. Bei einer Zellzykluszeit von 10-12 Stunden werden dabei in der Testzeit von 7 Tagen etwa 14 aufeinanderfolgende Generationen beobachtet. Die erfindungsgemäßen zytostatisch wirksamen Substanzen bewirken in diesem Test eine Reduktion der zu beobachtenden Koloniezahl gegenüber einer unbehandelten Kontrollprobe.
Verfahrensweise zur Ermittlung der Koloniebildung von L1210 Leukämiezellen in Soft-Agar
500 Leukämiezellen pro Platte wurden mit unterschiedlichen Konzentrationen der Testsubstanz 1 Stunde bei 37°C inkubiert. Anschließend wurden die Zellen zweimal mit McCoy5A-Medium gewaschen und schließlich in Petrischalen nach Zugabe von 0,3 % Agar ausgegossen. Kontrollen wurden lediglich mit frischem Medium inkubiert. Anstelle der einstündigen Inkubation wurden in manchen Fällen unterschiedliche Konzentrationen und Testsubstanzen der oberen Agarschicht zugemischt, um so eine kontinuierliche Exposition der Zellen über die gesamte Inkubationszeit zu erreichen. Nach Erstarren des Agars wurden die Platten im Brutschrank 7 Tage bei 37°C inkubiert (5 Vol.-% CO₂, 95 % relative Luftfeuchtigkeit). Anschließend wurde die Zahl der entstandenen Kolonien mit einem Durchmesser von mehr als 60 µm gezählt. Die Ergebnisse wurden angegeben als Koloniezahl in behandelten Agarplatten in Prozent der unbehandelten Kontrolle. Aus der so erhalte nen Dosiswirkungskurve wurde die IC₅₀ als Maß für die Wirksamkeit der Substanz ermittelt. Die Ergebnisse für die hier beschriebenen Verbindungen im Vergleich zu Adriamycin sind in Tabelle 1 zusammengefaßt.

[1] = Stability under weakly acidic conditions (qualitative statement); type: physicochemical; details: unter schwach sauren Bedingungen
[2] = L1210, 168 h, continuous exposure over the whole incubation time (7 days, 37°C), substance mixed into upper agar layer, colony count vs untreated control, read-out: Dauerinku-bation IC50
[3] = L1210, 1 h incubation at 37°C, cells washed, then 7 days in agar, colony count vs untreated control, read-out: 1 h-Inku-bation IC50

| SMILES | IC50 (L1210 Leukämiezellen; L1210, 168 h, read-out: Dauerinku-bation IC50) | IC50 (L1210 Leukämiezellen; L1210, read-out: 1 h-Inku-bation IC50) | Stabilität [1] | IC50 (L1210 Leukämiezellen; [2]) | IC50 (L1210 Leukämiezellen; [3]) |
| --- | --- | --- | --- | --- | --- |
| CC[C@@]1(O)C[C@H](O[C@H]2C[C@H](N(C)CCCl)[C@H](O)[C@H](C)O2)c2c(O)c3c(c(O)c2[C@H]1O)C(=O)c1cccc(O)c1C3=O [Verbindung 1, 7-0-(3′-N-Chlorethyl-3′-N-methyl-α-L-daunosaminyl)-β-rhodomycinon] | 0.03 µg/mL (≈ 0.0507 µM) | 0.11 µg/mL (≈ 0.186 µM) | relativ stabil | – | – |
| CC[C@@]1(O)C[C@H](O[C@H]2C[C@H](N(C)CCN(C)C)[C@H](O)[C@H](C)O2)c2c(O)c3c(c(O)c2[C@H]1O)C(=O)c1cccc(O)c1C3=O [Verbindung 2, 7-0-(3′-N-Dimethylaminoethyl-3′-N-methyl-α-L-,daunosaminyl)-β-rhodomycinon] | – | – | – | 0.033 µg/mL (≈ 0.0549 µM) | 0.12 µg/mL (≈ 0.2 µM) |
| CC[C@@]1(O)C[C@H](O[C@H]2C[C@H](N(C)CCN(C)CCNC)[C@H](O)[C@H](C)O2)c2c(O)c3c(c(O)c2[C@H]1O)C(=O)c1cccc(O)c1C3=O [Verbindung 3, 7-0-(3′-N-(N,N′-Dimethyl-ethylendiaminoethyl)-3′-N-methyl-α-L-daunosaminyl)-β-rhodomycinon] | – | – | – | 0.1 µg/mL (≈ 0.155 µM) | 0.6 µg/mL (≈ 0.932 µM) |
| CC[C@@]1(O)C[C@H](O[C@H]2C[C@H](N(C)CCNCCc3c[nH]cn3)[C@H](O)[C@H](C)O2)c2c(O)c3c(c(O)c2[C@H]1O)C(=O)c1cccc(O)c1C3=O [Verbindung 4, 7-0-(3′-N-Histaminoethyl-3′-N-methyl-α-L-daunosaminyl)-β-rhodomycinon] | – | – | – | 0.4 µg/mL (≈ 0.6 µM) | 1.2 µg/mL (≈ 1.8 µM) |
